Test results taken from patent US8829014B2, “Thiazole and thiophene analogues, and their use in treating autoimmune diseases and cancers” (Board of Supervisors of Louisiana State University and …, priority 2006, dated 2014).
Marks after values point to notes of the source that are not given here.

How the values were obtained:
NF-κB [1] = experiment: NF-κB inhibitor screen: basal NF-κB-dependent luciferase expression in HEK/NF-κB cell line; type: cell-based; settings: 1 uM; determined as described in Example 398; read-out: NFkB inhibition @ 1 uM
Method in brief: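 HEK293 cells stably carrying a luciferase reporter under six NF-κB elements were treated with compound, unstimulated, 24 h after plating. Compounds were first tested at 1.0 μM (0.3% DMSO), later at six doses from 10 to 3300 nM, in triplicate. Brite-Glo luciferase signal was normalized to DMSO, or to the lowest dose for dose-response runs.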

AP-1 [2] = experiment: AP-1 inhibitor screen: basal AP-1-dependent luciferase expression in HEK/AP-1 cell line; type: cell-based; settings: AP1; 1 uM; determined as described in Example 398
Method in brief: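 HEK293 cells stably carrying a luciferase reporter driven by three AP-1 elements were plated 24 hr, then given compound at 1.0 μM in 0.3% DMSO for 48 hr, in triplicate. Basal expression without stimulus was read as luminescence (Brite-Glo), normalized to DMSO; dose-response runs repeated two to four times.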

[3] = system: cell lines from the skin, one tumorigenic and one non-tumorigenic; experiment: MTT viability in skin cell line pair, tumorigenic and non-tumorigenic; type: cell-based
Procedure: (§1) Additional compounds have also been tested for their ability to inhibit both TNF-α-induced NF-κB—expression and PMA-induced AP-1 expression. In both tests, the compound was added for 1 h, then the appropriate inducer was added, and luciferase activity was monitored 24 h later. Values were then normalized to the vehicle control, DMSO. Following the initial luciferase screens, studies were conducted to assess the cytotoxicity of the compounds in normal cells such as VSMC, HUVEC, or HPT cells. Human umbilical vein endothelial cells (HUVEC) represent the normal endothelium, vascular smooth muscle cells (VSMC) were represented by cells from the adult rat aorta, and human proximal tubule (HPT) cells represent the normal proximal tubule in vivo. These cells were grown to near confluency in multi-well plates, and were then treated for 48 h with either vehicle (0.1% DMSO) or 10 μM of each drug candidate. Following treatment, the media from the VSMC and HUVEC incubations were removed, and the amount of lactate dehydrogenase (LDH) released into the medium was determined with a commercial kit. LDH is normally confined to the cytosol, and its release represents “leakiness” of the plasma membrane. LDH activity was expressed as % increase over vehicle-treated cells. In another assay of viability, the treated VSMC and HUVEC were removed by trypsinization and treated with trypan blue, a dye that is taken up only by dead cells. The number of both live and dead cells was counted using an automated cell viability analyzer. The % decrease in numbers of viable cells was determined. Toxicity in the treated HPT cells was determined by the ethidium homodimer (EthHD) uptake assay. EthHD is a fluorescent dye that is excluded from live cells, but is taken up by cells that have lost permeability barriers. Inside the cell, EthHD produces a strong fluorescent signal, which is proportional to the number of dead cells. Results were expressed as a % increase in cell death over vehicle-treated cells. The lead compounds were also tested in two pairs of cell lines from either the skin or prostate, one tumorigenic and one non-tumorigenic, to test for any differences in toxicity or heightened sensitivity in the tumorigenic lines. The cells were treated for 48 h with vehicle (0.1% DMSO) or 10 μM of each drug candidate. Following treatment, the viability of the cells was determined by the MTT assay. In this assay, the MTT dye is converted only in viable cells by intracellular enzymes to a colorimetric product that is quantitated by a microplate reader.
(§2) For the results in Table 13, cells were grown to near confluency in multi-well plates, then treated for 48 h with either vehicle (0.1% DMSO) or 10 μM of each drug candidate. Following treatment, the media from the VSMC and HUVEC incubations were removed, and the amount of lactate dehydrogenase (LDH) released into the medium was determined with a commercial kit and expressed as a % increase over vehicle-treated cells. HPT toxicity was determined by the ethidium homodimer (EthHD) uptake assay. Inside the cell, EthHD produces a strong fluorescent signal, which is proportional to the amount of cell death, expressed as a % increase in cell death over vehicle-treated cells. The lead compounds were also tested in two pairs of cell lines from the skin or prostate, one tumorigenic and one non-tumorigenic, to test for differing toxicity or heightened sensitivity in the tumorigenic lines. The cells were treated for 48 h with vehicle (0.1% DMSO) or 10 μM of each drug candidate, and the viability of the cells was determined by the MTT assay, expressed as a % decrease in viability compared to vehicle-treated cells. The in vivo inflammation model measured the % inhibition of rat paw edema induced by carageenan injection.

[4] = system: Human umbilical vein endothelial cells (HUVEC); experiment: Trypan blue viability count in HUVEC; type: cell-based; settings: HUVEC, 10 μM, 48 h, relative to vehicle
Procedure: as §1

[5] = system: vascular smooth muscle cells (VSMC); experiment: LDH release cytotoxicity in VSMC; type: cell-based; settings: VSMC, 10 μM, 48 h, relative to vehicle
Procedure: as §1, §2

[6] = system: human proximal tubule (HPT) cells; experiment: Ethidium homodimer (EthHD) uptake toxicity assay in HPT cells; type: cell-based; settings: 10 μM, 48 h, relative to vehicle
Procedure: as §1, §2

NF-κB [7] = experiment: TNF-α-induced NF-κB-dependent luciferase expression in HEK cells; type: cell-based; design: NF-κB % inhibition: concentration or dose not given beside the values; settings: TNF-α-induced; compound added 1 h before inducer, luciferase 24 h later; normalized to DMSO vehicle
AP-1 [8] = experiment: PMA-induced AP-1 luciferase expression in HEK cells; type: cell-based; settings: PMA-induced; compound added 1 h before inducer, luciferase 24 h later; normalized to DMSO vehicle
[9] = system: vascular smooth muscle cells (VSMC); experiment: Trypan blue viability count in VSMC; type: cell-based; settings: VSMC, 10 μM, 48 h, relative to vehicle
Procedure: as §1

[10] = system: Human umbilical vein endothelial cells (HUVEC); experiment: LDH release cytotoxicity in HUVEC; type: cell-based; settings: HUVEC, 10 μM, 48 h, relative to vehicle
Procedure: as §1, §2

Row | SMILES | inhibition at 1 µM (NF-κB [1]) [%] | melting point [°C] | inhibition at 1 µM (AP-1 [2]) [%] | Viability (MTT) % Decrease HaCaT [3] [%] | Viability (MTT) % Decrease SRB12-p9 [3] | Viable Cells % Decrease HUVEC [4] | LDH release % Increase VSMC [5] | Cell Death (EthHD) % Increase HPT [6] | NF-κB % inhibition (NF-κB [7]) [%] | AP-1 % inhibition (AP-1 [8]) | Viable Cells % Decrease VSMC [9] | LDH release % Increase HUVEC [10]
1 | Cc1cccc(-n2c(-c3sc(NC(=O)c4ccccc4)nc3-c3ccccc3)nc3ccccc3c2=O)c1 [Example 188, N-[5-(4-Oxo-3-m-tolyl-3,4-dihydro-quinazolin-2-yl)-4-phenyl-thiazole-2-yl]benzamide] | 42 | > 275 | 63 |  |  |  |  |  |  |  |  | 
2 | Cc1ccc(-n2c(-c3sc(Nc4ccccc4)nc3-c3ccccc3)nc3ccccc3c2=O)cc1 [Example 196, 3-p-Tolyl-2-(4-phenyl-2-phenylamino-thiazol-5-yl)-3H-quinazolin-4-one] | 38 | 225 to 228 | 10 |  |  |  |  |  |  |  |  | 
3 | COc1cccc(-n2c(-c3sc(NC(=O)c4ccccc4)nc3-c3ccccc3)nc3ccccc3c2=O)c1 [Example 214, N-[5-(4-Oxo-3-(3-methoxyphenyl)-3,4-dihydro-quinazolin-2-yl)-4-phenyl-thiazole-2-yl]benzamide] | 34 | 195 to 196 | 30 |  |  |  |  |  |  |  |  | 
4 | Cc1nc(Nc2ccccc2)sc1-c1nc2ccccc2c(=O)n1-c1ccccc1Cl [Example 229, 2-(4-Methyl-2-phenylamino-thiazol-5-yl)-3-(2-chloro-phenyl)-3H-quinazolin-4-one] | 6 | 228 to 229 | 21 |  |  |  |  |  |  |  |  | 
5 | COC(=O)Nc1nc(-c2ccccc2)c(-c2nc3ccccc3c(=O)n2-c2ccccc2Cl)s1 [Example 232, [5-(4-Oxo-3-(2-chloro-phenyl)-3,4-dihydro-quinazolin-2-yl)-4-phenyl-thiazol-2-yl]-carbamic acid methyl ester] | 55 | > 275 | 67 |  |  |  |  |  |  |  |  | 
6 | Cc1ccc(C(=O)Nc2nc(-c3ccccc3)c(-c3nc4ccccc4c(=O)n3-c3ccc(Cl)cc3)s2)cc1 [Example 254, 4-Methyl-N-[5-(4-oxo-3-(4-Chloro-phenyl)-3,4-dihydroquinazolin-2-yl)-4-phenyl-thiazol-2-yl]-benzamide] | 0 | > 275 | 2 |  |  |  |  |  |  |  |  | 
7 | CC(=O)c1ccc(-n2c(-c3sc(Nc4ccccc4)nc3C)nc3ccccc3c2=O)cc1 [Example 262, 2-(4-Methyl-2-phenylamino-thiazol-5-yl)-3-(4-acetyl-phenyl)-3H-quinazolin-4-one] | 15 | 271 to 273 | 7 |  |  |  |  |  |  |  |  | 
8 | CNc1nc(-c2ccccc2)c(-c2nc3ccccc3c(=O)n2-c2ccc(C(C)=O)cc2)s1 [Example 266, 2-(2-Methylamino-4-phenyl-thiazol-5-yl)-3-(4-acetyl-phenyl)-3H-quinazolin-4-one] | 4 | 239 to 240 | 15 |  |  |  |  |  |  |  |  | 
9 | CC(=O)c1ccc(-n2c(-c3sc(Nc4ccccc4)nc3-c3ccccc3)nc3ccccc3c2=O)cc1 [Example 267, 3-(4-acetyl-phenyl)-2-(4-phenyl-2-phenylamino-thiazol-5-yl)-3H-quinazolin-4-one] | 43 | 223 to 225 | 19 |  |  |  |  |  |  |  |  | 
10 | CC(=O)c1ccc(-n2c(-c3sc(NC(=O)c4ccccc4)nc3-c3ccccc3)nc3ccccc3c2=O)cc1 [Example 268, N-[5-(4-Oxo-3-(4-acetyl-phenyl)-3,4-dihydro-quinazolin-2-yl)-4-phenyl-thiazole-2-yl]benzamide] | 18 | 250 to 252 | 44 |  |  |  |  |  |  |  |  | 
11 | CC(=O)c1ccc(-n2c(-c3sc(NC(=O)c4ccc(C)cc4)nc3-c3ccccc3)nc3ccccc3c2=O)cc1 [Example 269, 4-Methyl-N-[5-(4-oxo-3-(4-acetyl-phenyl)-3,4-dihydroquinazolin-2-yl)-4-phenyl-thiazol-2-yl]-benzamide] | 27 | 266 to 267 | 1 |  |  |  |  |  |  |  |  | 
12 | CNc1nc(C)c(-c2nc3ccccc3c(=O)n2-c2ccccc2C)s1 [PMCR19] |  |  |  | 6 | 21% | 20% | 4% | 63# % | 18 | 67** % | 29# % | 14%
13 | Cc1ccccc1-n1c(-c2sc(Nc3ccccc3)nc2C)nc2ccccc2c1=O [PMCR20] |  |  |  | 6 | 14% | 28# % | 9% | 109# % | 21 | 73** % | 34# % | 17%
14 | CCOC(=O)Nc1nc(-c2ccccc2)c(-c2nc3ccccc3c(=O)n2-c2ccccc2C)s1 [PMCR25] |  |  |  | −5 | 28# % | 40# % | 78# % | 34# % | 23 | 52** % | 56# % | 59# %
15 | Cc1cccc(-n2c(-c3sc(NC(=O)c4ccccc4)nc3-c3ccccc3)nc3ccccc3c2=O)c1 [PMCR45] |  |  |  | 19 | 20% | 41# % | 116# % | 49# % | 42 | 63** % | 67# % | 123# %
